Measured values from the supplement of paper PMC10307832.

What was measured:
Assay in all cases: relative viability (nuclei count vs DMSO), 5 days (fraction); higher = more cells survive
[1] = compound: COc1ccc(-c2ccc3c(N4CCOC[C@@H]4C)nc(N4CCOC[C@@H]4C)nc3n2)cc1CO [AZD8055] + CC(C)C[C@H](NC(=O)[C@H](Cc1ccccc1)NC(=O)c1cnccn1)B(O)O [Bortezomib] (partner 0.002 µM)
How it was run: (§1)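 Relative viability was taken as the ratio of nuclei in treated wells to nuclei in vehicle wells. Lung cancer cell lines in 1536-well plates received compounds by pin tool one day after seeding, either one drug alone or a fixed anchor-drug dose plus five library-drug doses (not always all listed) in √10 steps. Nuclei were counted on 4× images after 5 days of treatment, and values are medians of duplicate plates.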

[2] = compound: COc1ccc(-c2ccc3c(N4CCOC[C@@H]4C)nc(N4CCOC[C@@H]4C)nc3n2)cc1CO [AZD8055] + NC(=O)Nc1cc(-c2cccc(F)c2)sc1C(=O)N[C@H]1CCCNC1 [AZD7762] (partner 0.2 µM)
How it was run: as §1

[3] = compound: COc1ccc(-c2ccc3c(N4CCOC[C@@H]4C)nc(N4CCOC[C@@H]4C)nc3n2)cc1CO [AZD8055] + Cc1cc(Nc2cc(N3CCN(C)CC3)nc(Sc3ccc(NC(=O)C4CC4)cc3)n2)n[nH]1 [Tozasertib] (partner 0.1 µM)
How it was run: as §1

[4] = compound: COc1ccc(-c2ccc3c(N4CCOC[C@@H]4C)nc(N4CCOC[C@@H]4C)nc3n2)cc1CO [AZD8055] + Nc1ncn([C@H]2C[C@H](O)[C@@H](CO)O2)c(=O)n1 [Decitabine] (partner 2 µM)
How it was run: as §1

Row | Cell Line | relative viability ([1]; first compound 0.01 µM) | relative viability ([1]; first compound 0.03162 µM) | relative viability ([1]; first compound 0.1 µM) | relative viability ([1]; first compound 0.3162 µM) | relative viability ([1]; first compound 1 µM) | relative viability ([2]; first compound 0.01 µM) | relative viability ([2]; first compound 0.03162 µM) | relative viability ([2]; first compound 0.1 µM) | relative viability ([2]; first compound 0.3162 µM) | relative viability ([2]; first compound 1 µM) | relative viability ([3]; first compound 0.01 µM) | relative viability ([3]; first compound 0.03162 µM) | relative viability ([3]; first compound 0.1 µM) | relative viability ([3]; first compound 0.3162 µM) | relative viability ([3]; first compound 1 µM) | relative viability ([4]; first compound 0.01 µM) | relative viability ([4]; first compound 0.03162 µM) | relative viability ([4]; first compound 0.1 µM) | relative viability ([4]; first compound 0.3162 µM) | relative viability ([4]; first compound 1 µM)
1 | HCC-827 | 1.2 | 1.04 | 1.11 | 0.935 | 1.08 | 0.203 | 0.319 | 0.189 | 0.212 | 0.165 | 0.449 | 0.448 | 0.447 | 0.235 | 0.295 | 0.329 | 0.279 | 0.278 | 0.262 | 0.23
2 | ChaGo-K-1 | 1.03 | 1.12 | 1.09 | 0.87 | 0.647 | 0.957 | 0.832 | 0.828 | 0.703 | 0.645 | 0.214 | 0.213 | 0.213 | 0.168 | 0.175 | 0.506 | 0.425 | 0.528 | 0.494 | 0.441
3 | EMC-BAC-2 | 1.06 | 1.04 | 0.954 | 0.465 | 0.382 | 1.03 | 0.912 | 0.956 | 0.517 | 0.377 | 0.279 | 0.299 | 0.249 | 0.257 | 0.255 | 1.02 | 0.875 | 0.817 | 0.498 | 0.505
4 | NCI-H23 | 1.3 | 0.881 | 0.791 | 0.27 | 0.271 | 0.202 | 0.245 | 0.233 | 0.161 | 0.14 | 0.486 | 0.311 | 0.248 | 0.24 | 0.235 | 0.252 | 0.287 | 0.262 | 0.225 | 0.262
5 | RERF-LC-KJ | 1.18 | 0.921 | 0.748 | 0.528 | 0.569 | 1.26 | 1.08 | 0.659 | 0.402 | 0.434 | 0.519 | 0.556 | 0.421 | 0.333 | 0.299 | 0.589 | 0.68 | 0.666 | 0.383 | 0.395
6 | LC-2-ad | 1.08 | 1.01 | 1.08 | 0.777 | 0.537 | 0.909 | 0.873 | 0.816 | 0.791 | 0.645 | 0.491 | 0.564 | 0.366 | 0.339 | 0.377 | 0.911 | 0.729 | 0.788 | 0.835 | 0.67
7 | HCC-15 | 1.17 | 1.1 | 0.976 | 0.663 | 0.615 | 1.26 | 1.18 | 1.21 | 0.885 | 0.559 | 0.437 | 0.379 | 0.415 | 0.296 | 0.222 | 0.667 | 0.587 | 0.597 | 0.319 | 0.255
8 | NCI-H2405 | 1 | 0.975 | 0.906 | 0.46 | 0.414 | 0.832 | 0.779 | 0.621 | 0.324 | 0.313 | 0.812 | 0.815 | 0.676 | 0.448 | 0.344 | 0.79 | 0.715 | 0.593 | 0.363 | 0.339
9 | LXF-289 | 1.06 | 0.982 | 0.951 | 0.682 | 0.756 | 1.28 | 1.2 | 1.19 | 0.978 | 0.744 | 0.234 | 0.295 | 0.212 | 0.201 | 0.105 | 0.397 | 0.317 | 0.369 | 0.343 | 0.356
10 | NCI-H1755 | 0.98 | 0.879 | 0.75 | 0.459 | 0.359 | 0.625 | 0.401 | 0.416 | 0.364 | 0.33 | 0.551 | 0.555 | 0.449 | 0.429 | 0.437 | 0.714 | 0.636 | 0.691 | 0.506 | 0.461
11 | NCI-H1437 | 0.611 | 0.549 | 0.422 | 0.206 | 0.209 | 1.16 | 1.1 | 1.12 | 0.568 | 0.494 | 0.437 | 0.458 | 0.496 | 0.373 | 0.238 | 0.612 | 0.553 | 0.509 | 0.363 | 0.302
12 | NCI-H2085 | 1.11 | 0.859 | 0.705 | 0.407 | 0.357 | 0.994 | 0.848 | 0.706 | 0.409 | 0.362 | 0.775 | 0.759 | 0.703 | 0.388 | 0.338 | 0.576 | 0.512 | 0.379 | 0.456 | 0.426
13 | H3255 | 0.777 | 0.901 | 0.525 | 0.371 | 0.259 | 1.03 | 0.951 | 0.803 | 0.471 | 0.413 | 0.574 | 0.716 | 0.535 | 0.604 | 0.359 | 0.535 | 0.568 | 0.48 | 0.316 | 0.281
14 | NCI-H650 | 0.658 | 0.511 | 0.681 | 0.343 | 0.291 | 0.84 | 0.875 | 1.02 | 0.667 | 0.323 | 0.817 | 0.711 | 0.601 | 0.381 | 0.333 | 0.35 | 0.278 | 0.333 | 0.29 | 0.275
15 | LCLC-103H | 1.15 | 0.934 | 0.93 | 0.745 | 0.673 | 0.739 | 0.608 | 0.592 | 0.343 | 0.371 | 0.493 | 0.494 | 0.399 | 0.367 | 0.25 | 0.767 | 0.616 | 0.532 | 0.417 | 0.374
16 | LOU-NH91 | 0.452 | 0.512 | 0.489 | 0.497 | 0.381 | 0.684 | 0.702 | 0.621 | 0.557 | 0.555 | 0.735 | 0.716 | 0.693 | 0.672 | 0.506 | 0.85 | 0.809 | 0.72 | 0.577 | 0.615
